Test [1] concerns non-homologous end-joining (NHEJ) of DNA by PC-C (Ku70/80, DNA-PKcs, XRCC4, DNA ligase IV). Nature of the test: DNA end-joining (NHEJ) complementation assay with HeLa fraction PC-C. It is filed as biochemical, human. As to conditions: for ability to stimulate DNA end-joining (NHEJ) by PC-C: FIG. 4C, 6A, 8; for concentration that saturates the NHEJ system / pKd: components derived from humans; for pKd: crude estimate, read-out: estimate of the Kd in the NHEJ system; for stimulation of NHEJ by PC-C relative to IP6: FIG. 8. As for the experimental part:
Fraction PC-C was dialyzed for 2 hours against L buffer (20 mM Tris-HCl pH 8.0, 25 mM KOAc, 0.5 mM EDTA, 10% glycerol, 1 mM DTT) and stored at −80° C.
End joining reactions (10 μl) were carried out in 50 mM HEPES pH 8.0, 40 mM KOAc, 0.5 mM Mg(OAc)2, 1 mM ATP, 1 mM DTT, 0.1 mg/ml BSA, contained 2-3 μl (3-5 μg) of PC-C and HindIII-linearized 5′-^32P-labeled pDEA7Z DNA (10 ng). Incubation was for 1 hour at 37° C. ^32P-labeled DNA products were deproteinized and analyzed by electrophoresis through 0.6% agarose gels followed by autoradiography. Quantification of joining efficiency was carried out by phosphorimaging and the data are presented as (% total ends-joinedsample)−(% total ends-joinedPC-C) unless otherwise stated. For assays of inositol phosphates, aqueous solutions were added directly to the end-joining reactions. For the screening of column fractions; 0.5-1 μl of diluted (in L buffer) or undiluted column fractions were added

A further test deals with phosphatases. The note with it: cited from earlier work.
The next test has as its target T1, T4 DNA ligase (Enterobacteria phage T4, UniProt P00970).
T1 construct: purchased NEB
T1 sequence (P00970 1-487): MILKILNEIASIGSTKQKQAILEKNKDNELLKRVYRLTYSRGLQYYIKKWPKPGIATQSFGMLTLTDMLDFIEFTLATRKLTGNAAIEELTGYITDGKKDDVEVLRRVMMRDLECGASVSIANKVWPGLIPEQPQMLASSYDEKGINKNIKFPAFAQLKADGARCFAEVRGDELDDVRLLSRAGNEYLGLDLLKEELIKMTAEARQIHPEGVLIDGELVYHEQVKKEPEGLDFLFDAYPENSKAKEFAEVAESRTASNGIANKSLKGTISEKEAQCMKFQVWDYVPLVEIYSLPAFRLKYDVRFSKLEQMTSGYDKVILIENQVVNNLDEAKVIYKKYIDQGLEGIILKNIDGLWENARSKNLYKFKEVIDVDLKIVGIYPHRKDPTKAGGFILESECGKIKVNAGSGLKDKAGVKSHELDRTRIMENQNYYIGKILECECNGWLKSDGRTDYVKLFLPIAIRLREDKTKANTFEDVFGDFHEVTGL
Put plainly: T4 DNA ligation assay. The note with it: 2 μM IP6, T4 DNA ligase 0.1 u/μl, FIG. 6B. It is filed as biochemical. As for the experimental part: Reactions (10 μl) containing T4 DNA ligase (NEB) were carried out in 1×T4 DNA ligase buffer (NEB) at 25° C. in the presence and absence of inositol phosphates. Reactions were stopped, deproteinized and the products analyzed by agarose gel electrophoresis.

A further test has as its target T2, DNA-PK (Homo sapiens, UniProt P12956+P13010).
T2 construct: purchased Promega
Put plainly: Gel filtration analysis of 3H-inositol phosphate binding by DNA-PK. The note with it: for binding by DNA-PK: gel filtration, 100 nM 3H-ligand, FIG. 7. The procedure: Binding reactions (55 μl) were carried out in 25 mM HEPES pH 7.5, 50 mM KCl, 10 mM MgCl2, 1 mM DTT, 10% glycerol, 0.1% NP-40 with 5000 units of DNA-PK (Promega) or 1.8 mg/ml of protein size standards for gel filtration (BioRad) and 100 nM ^3H-IP6 or ^3H-IP3 at 4° C. for 30 min. Complexes were resolved on a Superose 12 PC3.2/30 column run in 50 mM HEPES pH 8.0, […], 0.1M KCl, 10% glycerol, 1 mM DTT at 40 μl/min. 50 μl fractions were collected; 20 μl samples of each fraction were used for ^3H scintilation counting (10 min/sample in 5 ml EcoscintA) and 10 μl were assayed for DNA-PK kinase activity using the SignaTECT DNA-PK assay system (Promega).
The specificity of IP6 recognition by DNA-PK was assessed by competition trials using inositol hexasulphate (IS6). […] Addition of DNA-PK results in an increase in the mobility of the ^3H-IP6 indicating complex formation. IS6, presented in 10- and 100-fold molar excess have no effect on the amount of ^3H-IP6 bound by DNA-PK.

Another test has as its system skin cancer development. The note with it: mice, given orally; cited from earlier work.
Another test has as its target T3, Ku 70/80 heterodimer (Homo sapiens, UniProt P12956+P13010).
T3 construct: made in house
Nature of the test: Gel filtration binding and competition analysis with purified Ku 70/80. As to conditions: for binding by Ku 70/80 heterodimer: gel filtration, FIG. 10-12; for loss in 3H-IP6 binding by Ku (competition): one molar equivalent of competitor. As for the experimental part: (§1) Superdex 200 gel filtration, 50 μl fractions, scint. counting 20 μl/fraction 100 nM ^3H-IP6, 100 nM Ku, 100 nM DNA ([…]), 100 nM PKcs. Running buffer. 50 mM HEPES, pH 8.0, 40 mM KOAc, 10% Glycerol, 0.1 M KCl, 1 mM DTT.
(§2) Ku 70/80 and DNA-PKcs were purified to homogeneity and used to examine the binding of IP6 by DNA-PK ^3H-IP6 was used in these binding experiments and the curves presented in FIG. 10 represent the distribution of ^3H-IP6 along a gel filtration column under various conditions. ^3H-IP6 observed in a peak below 17 kD represents unbound ^3H-IP6. In the presence of purified Ku 70/80 (±DNA-PKcs) ^3H-IP6 elutes early from the column near the 150 MW point. […] It is believed that DNA-PK assembles on DNA and that in the absence of DNA that Ku and DNA-PKcs, are separate in solution. The addition of DNA to the Ku-^3H-IP6 complex results in a shift in the elution profile from the gel filtration column—the peak is broader (possibly owing to the mobility of the DNA) and has an earlier start point. […] Finally, the addition of DNA-PKcs, to the Ku-IP6DNA complex results in an additional increase in mobility along the gel filtration column. The species appears very large—near 670 kD—which is consistent with it containing Ku 70/80, ^3H-IP6, DNA-PKcs and DNA.
The specificity of IP6 binding by Ku was examined by competition analysis (FIG. 13) using IP3, IP6 and IP7. […] These findings may be extended to postulate that while IP6 is bound by Ku, that the stimulatory effect of IP6 on NHEJ probably results from additional interactions that may be regulated by formation of the IP6-Ku complex.
Background: SEC sorts molecules by how far they enter the pores of the column.

A further test deals with T4, DNA-PKcs (Homo sapiens, UniProt P78527).
T4 construct: made in house
Nature of the test: Gel filtration binding with purified DNA-PKcs. The note with it: absence of DNA, FIG. 10-11. As for the experimental part:
as §1, §2

pKd: −log10 of the molar value. Entries after “also recorded” stand apart in the source; their conditions may differ.

By pKd is commonly meant the negative decadic logarithm of the Kd, by convention in mol/L.

T3 sequence (P12956 whole entry): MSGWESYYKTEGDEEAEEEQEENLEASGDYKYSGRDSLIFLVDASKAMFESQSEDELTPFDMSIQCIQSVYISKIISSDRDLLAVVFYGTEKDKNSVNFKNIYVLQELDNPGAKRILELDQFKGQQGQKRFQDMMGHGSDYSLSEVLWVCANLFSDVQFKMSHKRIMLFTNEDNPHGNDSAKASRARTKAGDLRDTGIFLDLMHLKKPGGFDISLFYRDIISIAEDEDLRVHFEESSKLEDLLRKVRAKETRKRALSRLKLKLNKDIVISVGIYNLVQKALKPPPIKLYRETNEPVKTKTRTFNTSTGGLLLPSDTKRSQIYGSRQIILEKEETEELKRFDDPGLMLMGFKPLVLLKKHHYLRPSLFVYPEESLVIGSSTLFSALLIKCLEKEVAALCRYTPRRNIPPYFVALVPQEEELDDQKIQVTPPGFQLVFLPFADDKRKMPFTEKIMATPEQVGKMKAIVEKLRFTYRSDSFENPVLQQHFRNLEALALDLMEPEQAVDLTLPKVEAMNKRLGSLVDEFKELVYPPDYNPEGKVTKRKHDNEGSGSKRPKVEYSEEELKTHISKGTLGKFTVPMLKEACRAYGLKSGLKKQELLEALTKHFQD
T3 sequence (P13010 whole entry): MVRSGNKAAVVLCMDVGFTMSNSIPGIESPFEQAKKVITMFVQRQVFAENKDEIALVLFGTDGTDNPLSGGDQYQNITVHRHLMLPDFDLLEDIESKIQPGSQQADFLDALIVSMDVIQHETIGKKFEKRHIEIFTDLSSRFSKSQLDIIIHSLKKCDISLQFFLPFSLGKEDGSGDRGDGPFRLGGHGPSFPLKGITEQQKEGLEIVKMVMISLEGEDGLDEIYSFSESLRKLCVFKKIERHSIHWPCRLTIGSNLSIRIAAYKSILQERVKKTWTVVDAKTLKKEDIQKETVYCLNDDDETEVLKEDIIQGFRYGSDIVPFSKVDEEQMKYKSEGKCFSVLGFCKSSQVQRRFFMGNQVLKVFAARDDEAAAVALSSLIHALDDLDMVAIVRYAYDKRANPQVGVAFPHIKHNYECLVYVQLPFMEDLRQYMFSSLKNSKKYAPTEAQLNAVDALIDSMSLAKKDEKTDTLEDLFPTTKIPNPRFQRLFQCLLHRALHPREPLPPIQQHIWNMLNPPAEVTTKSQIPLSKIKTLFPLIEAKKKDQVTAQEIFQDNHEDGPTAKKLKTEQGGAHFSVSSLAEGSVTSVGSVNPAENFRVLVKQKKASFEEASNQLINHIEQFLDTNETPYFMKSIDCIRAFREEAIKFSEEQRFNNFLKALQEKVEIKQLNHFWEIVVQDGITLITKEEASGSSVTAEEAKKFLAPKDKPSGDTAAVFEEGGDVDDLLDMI
T2 sequence (P12956 2-609 limits assumed): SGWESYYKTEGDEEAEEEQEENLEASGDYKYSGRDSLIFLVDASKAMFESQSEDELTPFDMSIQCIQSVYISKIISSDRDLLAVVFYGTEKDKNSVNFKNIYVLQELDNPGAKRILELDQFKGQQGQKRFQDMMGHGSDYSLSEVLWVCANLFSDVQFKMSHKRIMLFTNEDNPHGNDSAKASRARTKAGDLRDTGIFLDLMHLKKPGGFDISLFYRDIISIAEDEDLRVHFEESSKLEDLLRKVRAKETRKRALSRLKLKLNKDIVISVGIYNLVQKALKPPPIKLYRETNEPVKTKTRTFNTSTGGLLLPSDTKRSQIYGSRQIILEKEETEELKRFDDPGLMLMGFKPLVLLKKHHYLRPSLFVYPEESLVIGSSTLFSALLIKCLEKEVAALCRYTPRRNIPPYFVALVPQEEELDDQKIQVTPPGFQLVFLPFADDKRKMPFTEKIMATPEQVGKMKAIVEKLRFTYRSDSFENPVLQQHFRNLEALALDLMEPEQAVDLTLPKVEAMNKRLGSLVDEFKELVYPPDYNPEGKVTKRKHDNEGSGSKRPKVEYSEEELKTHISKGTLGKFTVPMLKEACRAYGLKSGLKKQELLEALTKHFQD
T2 sequence (P13010 2-732 limits assumed): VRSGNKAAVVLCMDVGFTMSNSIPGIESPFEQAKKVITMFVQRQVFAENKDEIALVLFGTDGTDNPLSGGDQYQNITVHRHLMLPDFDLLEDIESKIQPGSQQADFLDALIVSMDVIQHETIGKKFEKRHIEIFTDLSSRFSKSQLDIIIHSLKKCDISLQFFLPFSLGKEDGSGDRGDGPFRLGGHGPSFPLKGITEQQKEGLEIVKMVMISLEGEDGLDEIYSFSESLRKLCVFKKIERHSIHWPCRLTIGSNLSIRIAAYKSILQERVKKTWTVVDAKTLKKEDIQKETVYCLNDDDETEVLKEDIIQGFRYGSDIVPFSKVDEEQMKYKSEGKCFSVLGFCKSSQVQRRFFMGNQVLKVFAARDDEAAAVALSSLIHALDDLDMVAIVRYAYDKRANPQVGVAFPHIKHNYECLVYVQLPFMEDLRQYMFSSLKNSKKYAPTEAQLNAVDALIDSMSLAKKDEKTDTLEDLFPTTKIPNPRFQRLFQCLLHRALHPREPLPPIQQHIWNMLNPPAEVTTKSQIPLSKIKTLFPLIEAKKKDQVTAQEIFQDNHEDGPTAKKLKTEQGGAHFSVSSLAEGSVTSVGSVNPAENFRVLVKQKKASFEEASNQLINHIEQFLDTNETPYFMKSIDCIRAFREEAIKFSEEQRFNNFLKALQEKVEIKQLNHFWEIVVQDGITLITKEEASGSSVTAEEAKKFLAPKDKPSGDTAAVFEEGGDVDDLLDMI

`O=P(O)(O)OC1[C@H](O)[C@H](OP(=O)(O)O)C(OP(=O)(O)O)[C@H](OP(=O)(O)O)[C@H]1O` (stereo partly drawn) [IP4, D-myo-inositol 1,3,4,5-tetrakisphosphate]: the “ability to stimulate DNA end-joining (NHEJ) by PC-C” value (“ability” for short) in test [1] is given as “able to stimulate end-joining, but the efficiency of this stimulation was reduced relative to IP6; also recorded: able to stimulate end-joining, though to a lesser extent; also recorded: stimulate NHEJ of DNA”.

`O=P(O)(O)O[C@@H]1[C@@H](OP(=O)(O)O)[C@H](OP(=O)(O)O)[C@H](O)[C@H](OP(=O)(O)O)[C@H]1OP(=O)(O)O` [IP5, myo-inositol 1,3,4,5,6-pentakisphosphate]: the “ability” value in test [1] was “able to stimulate end-joining, but the efficiency of this stimulation was reduced relative to IP6; also recorded: able to stimulate end-joining, though to a lesser extent; also recorded: stimulate NHEJ of DNA”.

As for `O=P(O)(O)OC1C(OP(=O)(O)O)C(OP(=O)(O)O)C(OP(=O)(O)O)C(OP(=O)(O)O)C1OP(=O)(O)O` (stereo not drawn) [IP6, myo-inositol 1,2,3,4,5,6-hexakisphosphate], the “concentration at which it functions as a phosphatase inhibitor” value in the test on phosphatases is at least 10 µM. For the same compound, at T4 DNA ligase, the “effect on efficiency of ligation by T4 DNA ligase” value was “unaffected; also recorded: no effect”. Besides, on DNA-PK, the “binding by DNA-PK” value is “capable of binding; also recorded: binds”. The “effect on skin cancer development” value in the test on skin cancer development is recorded as “reduces initiation of skin cancer development but not its promotion”. For the same compound, at Ku 70/80 heterodimer, the “binding by Ku 70/80 heterodimer” value is “bind”. Besides, the “binding by Ku 70/80 heterodimer” value at Ku 70/80 heterodimer (listed as 3H-IP6) is recorded as “binds”. At Ku 70/80 heterodimer (FIG. 13), the “loss in 3H-IP6 binding by Ku (competition)” value was around 50%. Further, the “interaction with DNA-PKcs” value at DNA-PKcs is reported as “does not interact”. In addition, in test [1], the “low concentration at which end-joining can be stimulated (discussion)” value stood at 100 µM, the “ability” value is “most effective inositol phosphate compound of those tested; also recorded: stimulated end-joining by PC-C; also recorded: stimulate NHEJ of DNA”, the “concentration that saturates the NHEJ system” value amounted to 10 µM and the pKd is around 6.00. The “concentration of maximal stimulation of end-joining by PC-C” value in test [1] (FIG. 4B) came to 1 µM. In test [1] (FIG. 4B, commercially available IP6), the “concentration at which end-joining by PC-C is stimulated” value is given as around 100 nM.

Turning to `O=P(O)(O)O[C@H]1[C@@H](OP(=O)(O)O)[C@H](OP(=O)(O)O)[C@@H](OP(=O)(O)OP(=O)(O)O)[C@H](OP(=O)(O)O)[C@H]1OP(=O)(O)O` [IP7 pp5, myo-5-diphosphoinositol 1,2,3,4,6-pentakisphosphate], in test [1], the “ability” value is “do stimulate NHEJ by PC-C” and the “stimulation of NHEJ by PC-C relative to IP6” value is listed as “approximately 10 fold”.

Take `O=P(O)(O)OC1[C@@H](OP(=O)(O)O)[C@H](OP(=O)(O)O)C(OP(=O)(O)OP(=O)(O)O)[C@H](OP(=O)(O)O)[C@H]1OP(=O)(O)O` (stereo partly drawn) [IP7, diphosphoinositol pentakisphosphate]: on DNA-PK, the “binding by DNA-PK” value is given as “binds”. Also, the “binding by Ku 70/80 heterodimer” value at Ku 70/80 heterodimer is recorded as “bind”. At Ku 70/80 heterodimer (FIG. 13), the “loss in 3H-IP6 binding by Ku (competition)” value is on record as around 50%. Further, in test [1], the “stimulation of NHEJ by PC-C relative to IP6” value came out at 10 fold, the “concentration that saturates the NHEJ system” value came out at 1 µM and the pKd was around 4.00.

For the compound `O=P(O)(O)O[C@H]1[C@@H](OP(=O)(O)O)[C@@H](OP(=O)(O)O)[C@H](OP(=O)(O)OP(=O)(O)O)[C@@H](OP(=O)(O)O)[C@@H]1OP(=O)(O)O` [IP7-pp6, myo-6-diphosphoinositol 1,2,3,4,5-pentakisphosphate], in test [1], the “ability” value is reported as “do stimulate NHEJ by PC-C” and the “stimulation of NHEJ by PC-C relative to IP6” value is recorded as “approximately 10 fold”.

On to `O=S(=O)(O)OC1C(OS(=O)(=O)O)C(OS(=O)(=O)O)C(OS(=O)(=O)O)C(OS(=O)(=O)O)C1OS(=O)(=O)O` (stereo not drawn) [IS6, inositol hexasulphate], for which the “effect on the amount of 3H-IP6 bound by DNA-PK (competition)” value on DNA-PK (10- and 100-fold molar excess, FIG. 9) is on record as “does not compete; also recorded: no effect”. Besides, the “ability” value in test [1] is “unable to stimulate end-joining”.

For the compound myo-inositol 1,4,5-trisphosphate [IP3], the figures for the “binding by DNA-PK” value on DNA-PK and at DNA-PK (listed as 3H-IP3) were “not” and “not altered by the presence of DNA-PK”, respectively. In addition, the “effect on 3H-IP6 binding by Ku (competition)” value at Ku 70/80 heterodimer (3-fold molar excess of competitor, FIG. 13) was “no effect”. Further, the “ability” value in test [1] is “inhibitory; also recorded: does not stimulate NHEJ”; in test [1] (listed as myo-inositol 1,4,5-trisphosphate), “inhibit end-joining”.

These data come from patent publication US20040029130A1, “Drug screening systems and assays” (priority 2000, published 2004).
